Assay results from doi:10.1101/2024.08.19.608619, “Discovery of potent SARS-CoV-2 nsp3 macrodomain inhibitors uncovers lack of translation to cellular antiviral response” (bioRxiv, 2024).
Like-named read-outs stand apart in the source and are kept apart here.

Columns and labels:
Assay in all cases: biochemical
Parameters in all cases: In vitro kinase panel profiling, per cent remaining kinase activity at 10 uM
AMPKα1(h) = target: T1, AMPKα1(h) (Homo sapiens, UniProt Q13131); settings: atp_concentration=45, read-out: % of control remaining
T1 construct: gene PRKAA1
Excerpt: (§1) We derisk potential for off-target activity by profiling the compound in a CEREP panel, a standard secondary pharmacology assessment, as well as a kinase panel to derisk a potential hinge-binding motif in our leads, and a PARP panel to derisk activity against human […]. Reassuringly, the compounds are selective, with the only off-targets being moderate human CHRM2 and KOR receptors activity associated with ASAP-0011198.

Abl(h) = target: T2, Abl(h) (Homo sapiens, UniProt P00519); settings: atp_concentration=45, read-out: % of control remaining
T2 construct: gene ABL1
Excerpt: as §1

CDK1/cyclinB(h) = CDK1/cyclinB(h) (Homo sapiens, UniProt P06493); settings: atp_concentration=45, read-out: % of control remaining
Excerpt: as §1

CDK2/cyclinA(h) = CDK2/cyclinA(h) (Homo sapiens, UniProt P24941); settings: atp_concentration=45, read-out: % of control remaining
Excerpt: as §1

CK2α2(h) = target: T3, CK2α2(h) (Homo sapiens, UniProt P19784); settings: atp_concentration=10, read-out: % of control remaining
T3 construct: gene CSNK2A2
Excerpt: as §1

EGFR(h) = EGFR(h) (Homo sapiens, UniProt P00533); settings: atp_concentration=10, read-out: % of control remaining
Excerpt: as §1

EphA5(h) = EphA5(h) (Homo sapiens, UniProt P54756); settings: atp_concentration=10, read-out: % of control remaining
Excerpt: as §1

GSK3β(h) = target: T4, GSK3β(h) (Homo sapiens, UniProt P49841); settings: atp_concentration=15, read-out: % of control remaining
T4 construct: gene GSK3B
Excerpt: as §1

IGF-1R(h) = target: T5, IGF-1R(h) (Homo sapiens, UniProt P08069); settings: atp_concentration=200, read-out: % of control remaining
T5 construct: gene IGF1R
Excerpt: as §1

MLK1(h) = target: T6, MLK1(h) (Homo sapiens, UniProt P80192); settings: atp_concentration=45, read-out: % of control remaining
T6 construct: gene MAP3K9
Excerpt: as §1

Mnk2(h) = target: T7, Mnk2(h) (Homo sapiens, UniProt Q9HBH9); settings: atp_concentration=120, read-out: % of control remaining
T7 construct: gene MKNK2
Excerpt: as §1

PAK2(h) = PAK2(h) (Homo sapiens, UniProt Q13177); settings: atp_concentration=90, read-out: % of control remaining
Excerpt: as §1

PKA(h) = target: T8, PKA(h) (Homo sapiens, UniProt P17612); settings: atp_concentration=10, read-out: % of control remaining
T8 construct: gene PRKACA
Excerpt: as §1

PKBα(h) = target: T9, PKBα(h) (Homo sapiens, UniProt P31749); settings: atp_concentration=155, read-out: % of control remaining
T9 construct: gene AKT1
Excerpt: as §1

TAK1(h) = target: T10, TAK1(h) (Homo sapiens, UniProt O43318); settings: atp_concentration=45, read-out: % of control remaining
T10 construct: gene MAP3K7
T10 sequence (O43318 1-606): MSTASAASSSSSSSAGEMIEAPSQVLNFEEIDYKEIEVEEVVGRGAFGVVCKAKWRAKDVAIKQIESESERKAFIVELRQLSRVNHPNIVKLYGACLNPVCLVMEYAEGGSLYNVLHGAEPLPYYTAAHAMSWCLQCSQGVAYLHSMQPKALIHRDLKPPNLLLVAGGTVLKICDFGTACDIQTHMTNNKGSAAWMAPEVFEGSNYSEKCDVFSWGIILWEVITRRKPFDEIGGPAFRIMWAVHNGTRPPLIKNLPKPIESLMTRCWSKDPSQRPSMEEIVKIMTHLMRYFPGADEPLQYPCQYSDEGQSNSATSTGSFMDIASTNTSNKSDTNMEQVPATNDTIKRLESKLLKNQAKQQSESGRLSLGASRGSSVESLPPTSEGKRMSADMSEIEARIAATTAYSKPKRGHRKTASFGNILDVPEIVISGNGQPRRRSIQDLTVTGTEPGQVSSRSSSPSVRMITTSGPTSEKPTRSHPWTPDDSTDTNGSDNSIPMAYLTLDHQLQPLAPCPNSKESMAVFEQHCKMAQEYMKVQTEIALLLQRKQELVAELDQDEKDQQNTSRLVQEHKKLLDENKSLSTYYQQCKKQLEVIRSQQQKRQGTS
Excerpt: as §1

c-RAF(h) = target: T11, c-RAF(h) (Homo sapiens, UniProt P04049); settings: atp_concentration=120, read-out: % of control remaining
T11 construct: gene RAF1
Excerpt: as §1

T1 sequence (Q13131 whole entry): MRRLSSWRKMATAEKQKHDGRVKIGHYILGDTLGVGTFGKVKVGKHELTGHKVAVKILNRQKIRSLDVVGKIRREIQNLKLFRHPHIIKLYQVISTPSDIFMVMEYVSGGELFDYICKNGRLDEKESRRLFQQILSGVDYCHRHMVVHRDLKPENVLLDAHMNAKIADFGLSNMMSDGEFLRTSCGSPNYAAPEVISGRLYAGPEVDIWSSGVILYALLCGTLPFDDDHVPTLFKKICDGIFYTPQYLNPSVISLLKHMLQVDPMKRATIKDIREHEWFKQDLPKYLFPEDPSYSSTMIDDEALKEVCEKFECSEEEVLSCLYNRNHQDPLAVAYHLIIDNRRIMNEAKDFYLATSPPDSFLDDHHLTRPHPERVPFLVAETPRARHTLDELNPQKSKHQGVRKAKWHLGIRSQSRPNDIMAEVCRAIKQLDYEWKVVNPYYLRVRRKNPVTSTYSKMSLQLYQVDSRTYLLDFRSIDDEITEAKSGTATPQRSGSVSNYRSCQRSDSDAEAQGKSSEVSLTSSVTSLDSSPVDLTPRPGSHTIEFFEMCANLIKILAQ
T1 sequence (P54619 whole entry partner): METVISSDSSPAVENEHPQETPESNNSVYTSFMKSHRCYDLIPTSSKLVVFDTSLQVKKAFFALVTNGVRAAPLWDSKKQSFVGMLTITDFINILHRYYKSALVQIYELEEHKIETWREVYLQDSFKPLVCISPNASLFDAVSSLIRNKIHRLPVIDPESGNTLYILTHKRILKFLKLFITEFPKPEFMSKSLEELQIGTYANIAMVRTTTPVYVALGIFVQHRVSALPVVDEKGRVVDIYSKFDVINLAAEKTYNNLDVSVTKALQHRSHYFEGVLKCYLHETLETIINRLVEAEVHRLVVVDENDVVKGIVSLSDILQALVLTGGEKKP
T1 sequence (Q9Y478 whole entry partner): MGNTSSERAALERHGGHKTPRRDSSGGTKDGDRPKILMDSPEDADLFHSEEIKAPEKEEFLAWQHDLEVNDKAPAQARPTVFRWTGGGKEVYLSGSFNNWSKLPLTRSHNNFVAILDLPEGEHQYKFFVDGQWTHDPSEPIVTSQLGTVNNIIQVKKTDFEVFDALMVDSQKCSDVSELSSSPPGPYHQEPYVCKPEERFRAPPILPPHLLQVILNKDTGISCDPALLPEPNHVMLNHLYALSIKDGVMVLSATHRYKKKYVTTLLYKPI
T9 sequence (P31749 whole entry): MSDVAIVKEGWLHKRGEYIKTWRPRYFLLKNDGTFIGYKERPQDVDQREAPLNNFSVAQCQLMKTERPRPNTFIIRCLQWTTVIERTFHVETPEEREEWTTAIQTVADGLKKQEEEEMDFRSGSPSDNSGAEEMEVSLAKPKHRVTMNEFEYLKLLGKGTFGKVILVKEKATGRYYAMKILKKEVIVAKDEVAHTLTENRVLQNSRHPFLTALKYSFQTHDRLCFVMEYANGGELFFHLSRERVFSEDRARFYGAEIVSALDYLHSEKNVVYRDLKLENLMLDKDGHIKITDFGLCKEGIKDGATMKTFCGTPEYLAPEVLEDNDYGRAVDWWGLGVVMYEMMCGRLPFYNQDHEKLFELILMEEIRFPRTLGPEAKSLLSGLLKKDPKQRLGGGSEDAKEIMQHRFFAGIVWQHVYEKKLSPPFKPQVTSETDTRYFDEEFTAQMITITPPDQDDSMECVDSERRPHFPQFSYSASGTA
Sequence of EphA5(h) (P54756 whole entry): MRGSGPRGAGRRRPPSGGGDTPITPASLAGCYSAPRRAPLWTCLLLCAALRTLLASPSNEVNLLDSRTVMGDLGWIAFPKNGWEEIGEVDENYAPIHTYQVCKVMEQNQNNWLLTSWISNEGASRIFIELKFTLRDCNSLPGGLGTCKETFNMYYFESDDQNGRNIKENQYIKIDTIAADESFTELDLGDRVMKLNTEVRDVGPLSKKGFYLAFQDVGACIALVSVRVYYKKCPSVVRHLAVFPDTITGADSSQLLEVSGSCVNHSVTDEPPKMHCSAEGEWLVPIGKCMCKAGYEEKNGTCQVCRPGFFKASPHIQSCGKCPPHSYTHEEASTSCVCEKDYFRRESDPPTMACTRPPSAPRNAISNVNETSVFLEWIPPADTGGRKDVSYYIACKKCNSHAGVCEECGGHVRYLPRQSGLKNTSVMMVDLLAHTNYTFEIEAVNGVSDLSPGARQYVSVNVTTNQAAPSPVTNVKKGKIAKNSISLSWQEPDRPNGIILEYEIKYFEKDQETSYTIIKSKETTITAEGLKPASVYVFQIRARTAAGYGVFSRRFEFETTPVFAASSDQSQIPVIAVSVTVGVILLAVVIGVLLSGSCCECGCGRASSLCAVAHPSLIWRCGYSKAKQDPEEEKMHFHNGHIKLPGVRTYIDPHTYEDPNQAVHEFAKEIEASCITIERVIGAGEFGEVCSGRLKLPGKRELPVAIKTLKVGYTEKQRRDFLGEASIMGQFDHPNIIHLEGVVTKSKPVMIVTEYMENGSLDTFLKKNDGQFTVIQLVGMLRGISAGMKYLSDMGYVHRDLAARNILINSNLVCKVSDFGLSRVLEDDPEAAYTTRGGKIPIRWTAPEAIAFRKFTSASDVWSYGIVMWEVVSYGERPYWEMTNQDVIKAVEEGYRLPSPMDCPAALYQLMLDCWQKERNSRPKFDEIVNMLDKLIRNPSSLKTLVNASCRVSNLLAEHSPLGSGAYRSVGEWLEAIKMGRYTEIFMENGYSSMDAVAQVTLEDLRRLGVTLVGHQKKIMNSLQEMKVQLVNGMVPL
T2 sequence (P00519 whole entry): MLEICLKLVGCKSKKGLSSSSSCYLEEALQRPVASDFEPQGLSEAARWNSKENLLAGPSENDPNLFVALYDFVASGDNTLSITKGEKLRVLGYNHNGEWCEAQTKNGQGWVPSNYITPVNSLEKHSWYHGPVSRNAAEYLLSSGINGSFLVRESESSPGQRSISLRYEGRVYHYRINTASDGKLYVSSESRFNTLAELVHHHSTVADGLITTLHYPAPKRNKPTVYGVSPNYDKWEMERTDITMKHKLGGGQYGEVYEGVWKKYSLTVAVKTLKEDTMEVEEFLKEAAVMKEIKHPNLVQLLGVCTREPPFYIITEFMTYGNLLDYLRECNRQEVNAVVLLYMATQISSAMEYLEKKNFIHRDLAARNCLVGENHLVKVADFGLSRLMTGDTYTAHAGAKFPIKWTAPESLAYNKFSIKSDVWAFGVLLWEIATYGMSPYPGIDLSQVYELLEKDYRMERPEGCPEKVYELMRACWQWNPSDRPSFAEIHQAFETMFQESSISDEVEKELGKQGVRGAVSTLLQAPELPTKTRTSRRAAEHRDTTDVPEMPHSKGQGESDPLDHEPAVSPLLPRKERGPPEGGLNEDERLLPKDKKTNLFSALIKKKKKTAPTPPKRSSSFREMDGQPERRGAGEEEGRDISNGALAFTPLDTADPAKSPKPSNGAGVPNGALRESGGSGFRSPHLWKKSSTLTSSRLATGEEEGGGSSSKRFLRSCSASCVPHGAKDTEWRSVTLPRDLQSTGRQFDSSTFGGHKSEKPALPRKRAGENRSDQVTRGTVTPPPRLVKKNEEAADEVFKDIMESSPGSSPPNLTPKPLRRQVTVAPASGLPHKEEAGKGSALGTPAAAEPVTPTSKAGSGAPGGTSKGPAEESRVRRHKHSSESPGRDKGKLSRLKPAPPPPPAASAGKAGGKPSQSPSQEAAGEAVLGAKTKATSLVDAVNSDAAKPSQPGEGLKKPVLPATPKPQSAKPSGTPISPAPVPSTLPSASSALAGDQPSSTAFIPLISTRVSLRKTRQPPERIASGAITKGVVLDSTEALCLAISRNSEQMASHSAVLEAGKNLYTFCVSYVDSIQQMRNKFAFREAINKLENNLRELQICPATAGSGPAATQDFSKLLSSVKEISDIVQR
Sequence of CDK1/cyclinB(h) (P06493 whole entry): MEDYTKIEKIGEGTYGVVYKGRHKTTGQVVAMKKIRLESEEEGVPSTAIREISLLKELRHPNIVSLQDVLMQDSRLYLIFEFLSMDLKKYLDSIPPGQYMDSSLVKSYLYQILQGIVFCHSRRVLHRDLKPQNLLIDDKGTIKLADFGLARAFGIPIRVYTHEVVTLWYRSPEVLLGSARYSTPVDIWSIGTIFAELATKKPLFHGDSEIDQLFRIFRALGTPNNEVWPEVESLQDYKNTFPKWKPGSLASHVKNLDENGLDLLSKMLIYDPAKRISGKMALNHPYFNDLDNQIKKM
Sequence of CDK1/cyclinB(h) (P14635 whole entry partner): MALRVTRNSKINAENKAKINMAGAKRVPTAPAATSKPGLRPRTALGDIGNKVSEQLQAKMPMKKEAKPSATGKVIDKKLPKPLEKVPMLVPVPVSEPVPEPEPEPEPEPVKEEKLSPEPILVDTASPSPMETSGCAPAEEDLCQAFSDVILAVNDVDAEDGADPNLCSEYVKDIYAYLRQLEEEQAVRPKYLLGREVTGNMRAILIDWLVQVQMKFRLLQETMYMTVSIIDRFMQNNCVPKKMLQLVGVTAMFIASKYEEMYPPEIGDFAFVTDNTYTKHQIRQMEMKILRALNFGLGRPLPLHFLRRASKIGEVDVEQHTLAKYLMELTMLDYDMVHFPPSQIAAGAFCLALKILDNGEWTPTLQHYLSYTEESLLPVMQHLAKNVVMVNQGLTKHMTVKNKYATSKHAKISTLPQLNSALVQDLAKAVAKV
T3 sequence (P19784 whole entry): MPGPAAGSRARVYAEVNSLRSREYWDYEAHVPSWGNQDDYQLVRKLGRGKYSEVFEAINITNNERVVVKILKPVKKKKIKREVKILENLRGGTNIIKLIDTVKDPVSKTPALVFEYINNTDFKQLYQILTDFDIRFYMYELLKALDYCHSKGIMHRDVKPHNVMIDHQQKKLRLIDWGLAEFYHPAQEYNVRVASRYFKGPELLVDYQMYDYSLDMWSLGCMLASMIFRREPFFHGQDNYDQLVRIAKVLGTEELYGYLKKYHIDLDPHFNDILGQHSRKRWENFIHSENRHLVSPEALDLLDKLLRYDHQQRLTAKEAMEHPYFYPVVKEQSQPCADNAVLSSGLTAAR

## CC(C)[C@@H](Nc1ncnc2[nH]c(-c3cnn(C)c3C#N)cc12)c1ccc2c(n1)OCCO2 [ASAP-0010716]
AMPKα1(h); batch_name=ASAP-0010716-002
  remaining activity at 10 µM: 99%
Abl(h); batch_name=ASAP-0010716-002
  remaining activity at 10 µM: 57%
CDK1/cyclinB(h); batch_name=ASAP-0010716-002
  remaining activity at 10 µM: 88%
CDK2/cyclinA(h); batch_name=ASAP-0010716-002
  remaining activity at 10 µM: 104%
CK2α2(h); batch_name=ASAP-0010716-002
  remaining activity at 10 µM: 93%
EGFR(h); batch_name=ASAP-0010716-002
  remaining activity at 10 µM: 77%
EphA5(h); batch_name=ASAP-0010716-002
  remaining activity at 10 µM: 90%
GSK3β(h); batch_name=ASAP-0010716-002
  remaining activity at 10 µM: 101%
IGF-1R(h); batch_name=ASAP-0010716-002
  remaining activity at 10 µM: 94%
MLK1(h); batch_name=ASAP-0010716-002
  remaining activity at 10 µM: 82%
Mnk2(h); batch_name=ASAP-0010716-002
  remaining activity at 10 µM: 83%
PAK2(h); batch_name=ASAP-0010716-002
  remaining activity at 10 µM: 99%
PKA(h); batch_name=ASAP-0010716-002
  remaining activity at 10 µM: 93%
PKBα(h); batch_name=ASAP-0010716-002
  remaining activity at 10 µM: 94%
TAK1(h); batch_name=ASAP-0010716-002
  remaining activity at 10 µM: 100%
c-RAF(h); batch_name=ASAP-0010716-002
  remaining activity at 10 µM: 90%

## CNCc1cc(-c2cc3c(N[C@@H](c4ccc5c(c4)S(=O)(=O)CCC5)C(C)C)ncnc3[nH]2)co1 [ASAP-0011176]
AMPKα1(h); batch_name=ASAP-0011176-002
  remaining activity at 10 µM: 86%
Abl(h); batch_name=ASAP-0011176-002
  remaining activity at 10 µM: 51%
CDK1/cyclinB(h); batch_name=ASAP-0011176-002
  remaining activity at 10 µM: 97%
CDK2/cyclinA(h); batch_name=ASAP-0011176-002
  remaining activity at 10 µM: 98%
CK2α2(h); batch_name=ASAP-0011176-002
  remaining activity at 10 µM: 90%
EGFR(h); batch_name=ASAP-0011176-002
  remaining activity at 10 µM: 97%
EphA5(h); batch_name=ASAP-0011176-002
  remaining activity at 10 µM: 78%
GSK3β(h); batch_name=ASAP-0011176-002
  remaining activity at 10 µM: 92%
IGF-1R(h); batch_name=ASAP-0011176-002
  remaining activity at 10 µM: 99%
MLK1(h); batch_name=ASAP-0011176-002
  remaining activity at 10 µM: 86%
Mnk2(h); batch_name=ASAP-0011176-002
  remaining activity at 10 µM: 94%
PAK2(h); batch_name=ASAP-0011176-002
  remaining activity at 10 µM: 94%
PKA(h); batch_name=ASAP-0011176-002
  remaining activity at 10 µM: 96%
PKBα(h); batch_name=ASAP-0011176-002
  remaining activity at 10 µM: 96%
TAK1(h); batch_name=ASAP-0011176-002
  remaining activity at 10 µM: 90%
c-RAF(h); batch_name=ASAP-0011176-002
  remaining activity at 10 µM: 100%
